The values below come from patent publication US5519006A, “Phosphonated arylethanolamine compounds with anti-hyperglycemic and/or anti-obesity activity” (SmithKline Beecham plc, priority 1992, dated 1996).

One experiment relates to Rat white adipocytes. The experiment is described as follows: Lipolysis stimulated in rat white adipocytes (glycerol release). The class given is cell-based. Conditions: Adipocyte, 0.5 h, 30 minutes. On the procedure:
Rat white adipocytes were prepared by collagenase digestion as described by Rodbell (1964) with the modification of Honnor et al. (1985), in that adenosine (200 nM) was included in the preparation to inhibit basal lipolysis.
Lipolysis stimulated by β-agonists was measured over 30 minutes in medium where the adenosine concentration was controlled; the medium included (-)-N^6 -(2-phenylisopropyl)adenosine (100 nM)+deaminase as decribed by Honnor et al. (1985). The incubation was stopped by addition of trichloracetic acid (0.2 ml of 10% w/v) to 1 ml of cells. Glycerol was measured by the fluorimetric method of Boobis and Maugham (1983).

The next experiment concerns the target T1, Rat β1 adrenoceptor (Rattus norvegicus, UniProt P18090).
T1 construct: Spontaneously beating right atria were removed; from tissue; host or cells: right atria of female Sprague-Dawley rats
As to the kind of experiment: β1-Adrenoceptor agonism, increase in rate of spontaneously beating right atria. The class given is cell-based, Rat (female Sprague-Dawley). The note with it: in vitro, 37° C., Krebs-Henseleit solution. On the procedure: (§1) Agonist Activity at Rat β1 and β2 Adrenoceptors In Vitro
Female Sprague-Dawley rats (150-250 g) were killed by a blow to the head and exsanguinated. Spontaneously beating right atria were removed by the method of Broadley and Lumley (1977) and mounted on a glass tissue holder. Each tissue was placed in 30 ml organ baths at 37° C. containing Kreb's-Henseleit solution. Each atrium was attached to an isometric transducer by cotton and placed under an initial resting tension of 1 g. Rate recordings from the spontaneous beating atria were obtained from the tension signal using a Lectromed Type 4522 ratemeter. All traces were recorded on a Lectromed M4 chart recorder. β-adrenoceptor agonists were then added to the Krebs medium in a cumulative fashion and the results expressed as a percentage increase in atrial rate.
(§2) Agonist EC50 (atria) and IC50 (uteri) were calculated as the concentration of agonist producing 50% of their maximum increase in atrial rate or uterine relaxation. Relative intrinsic activity expressed as the maximal responses to test agonists relative to isoprenaline (=1.0) in both atria and uteri.

In a further experiment the target is T2, Rat β2 adrenoceptor (Rattus norvegicus, UniProt P10608).
T2 construct: Rat uterine horns were removed and bisected longitudinally; from tissue; host or cells: rat uterine horns (uterine strips)
The experiment is described as follows: β2-Adrenoceptor agonism, inhibition of contraction of K+-pre-contracted uterine strips. The class given is cell-based. Conditions: pre-contracted with 40 mM K+. Here is the method: as §1
Rat uterine horns were removed and bisected longitudinally. Each tissue was tied to a glass tissue holder and placed in Krebs-Henseleit solution in a 30 ml organ bath as before. Tissues were placed under a resting tension of 1 g and allowed to equilibrate. Each uterine strip was pre-contracted by the addition of 40 mM K^+ to the bath to produced a steady tonic contraction. β-agonists were then added to the bath in a cumulative manner and results were expressed as percentage inhibition of contraction.
as §2

T1 sequence (P18090 whole entry): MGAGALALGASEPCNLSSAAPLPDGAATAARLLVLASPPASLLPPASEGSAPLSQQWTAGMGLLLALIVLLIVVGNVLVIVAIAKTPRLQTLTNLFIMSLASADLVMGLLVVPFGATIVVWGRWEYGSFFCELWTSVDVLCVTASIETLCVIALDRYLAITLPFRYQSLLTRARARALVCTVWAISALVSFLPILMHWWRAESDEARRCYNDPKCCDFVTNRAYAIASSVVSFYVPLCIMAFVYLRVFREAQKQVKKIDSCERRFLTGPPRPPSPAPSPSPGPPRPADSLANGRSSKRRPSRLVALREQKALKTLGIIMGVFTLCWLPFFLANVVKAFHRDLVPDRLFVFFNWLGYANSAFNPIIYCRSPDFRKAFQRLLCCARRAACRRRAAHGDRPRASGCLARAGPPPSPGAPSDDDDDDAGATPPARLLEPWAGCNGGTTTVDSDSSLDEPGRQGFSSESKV
T2 sequence (P10608 whole entry): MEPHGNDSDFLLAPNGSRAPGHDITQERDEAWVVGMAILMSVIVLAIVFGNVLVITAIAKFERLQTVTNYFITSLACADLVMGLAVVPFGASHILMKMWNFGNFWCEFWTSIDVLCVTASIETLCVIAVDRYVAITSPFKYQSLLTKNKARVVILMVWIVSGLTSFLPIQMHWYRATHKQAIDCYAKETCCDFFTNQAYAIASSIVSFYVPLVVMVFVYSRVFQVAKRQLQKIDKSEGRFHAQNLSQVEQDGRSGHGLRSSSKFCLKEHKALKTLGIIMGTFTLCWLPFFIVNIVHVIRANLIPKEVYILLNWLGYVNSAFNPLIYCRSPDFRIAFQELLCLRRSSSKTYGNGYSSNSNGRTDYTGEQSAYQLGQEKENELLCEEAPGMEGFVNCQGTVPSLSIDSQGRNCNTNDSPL

Consider `CCOP(=O)(O)COc1ccc(C[C@@H](C)NC[C@H](O)c2cccc(Cl)c2)cc1` (relative stereo) [Example 2, (RR,SS)-Sodium Ethyl 4-[2-[2-(3-chlorophenyl)-2-hydroxyethylamino]propyl]phenoxymethylphosphonate], for which a half-maximal response in the experiment on Rat white adipocytes (EC50) required 0.077 µM. Besides, the Emax in the experiment on Rat white adipocytes (read-out: Intrinsic Activity) was 95%. Besides, the inhibition constant (Ki) – broadly, a dissociation constant, usually derived from enzyme kinetics or from competition with a known ligand – at Rat β1 adrenoceptor came to 37600 nM; on Rat β2 adrenoceptor, 10000 nM.
